Source: patent US8772480B2, “Inhibitors of PI3 kinase and/or mTOR” (priority 2009, dated 2014)
Where two headings read alike, the source gives them in different places.

Columns and labels:
[1] = system: phosphorylation of Akt at Serine 473 in U87 MG cells; experiment: cells; details: Homo sapiens, U-87 MG, 2 h
[2] = biological target: PI3Kα (Homo sapiens (Human), UniProt P42336); details: read-out: PI3Kα AlphaScreen ® Ki
[3] = read-out: U87Cell IC50, pAkt (Ser 473), U87 MG cells, two hours with compound

PI3Kα, sequence (P42336 whole entry): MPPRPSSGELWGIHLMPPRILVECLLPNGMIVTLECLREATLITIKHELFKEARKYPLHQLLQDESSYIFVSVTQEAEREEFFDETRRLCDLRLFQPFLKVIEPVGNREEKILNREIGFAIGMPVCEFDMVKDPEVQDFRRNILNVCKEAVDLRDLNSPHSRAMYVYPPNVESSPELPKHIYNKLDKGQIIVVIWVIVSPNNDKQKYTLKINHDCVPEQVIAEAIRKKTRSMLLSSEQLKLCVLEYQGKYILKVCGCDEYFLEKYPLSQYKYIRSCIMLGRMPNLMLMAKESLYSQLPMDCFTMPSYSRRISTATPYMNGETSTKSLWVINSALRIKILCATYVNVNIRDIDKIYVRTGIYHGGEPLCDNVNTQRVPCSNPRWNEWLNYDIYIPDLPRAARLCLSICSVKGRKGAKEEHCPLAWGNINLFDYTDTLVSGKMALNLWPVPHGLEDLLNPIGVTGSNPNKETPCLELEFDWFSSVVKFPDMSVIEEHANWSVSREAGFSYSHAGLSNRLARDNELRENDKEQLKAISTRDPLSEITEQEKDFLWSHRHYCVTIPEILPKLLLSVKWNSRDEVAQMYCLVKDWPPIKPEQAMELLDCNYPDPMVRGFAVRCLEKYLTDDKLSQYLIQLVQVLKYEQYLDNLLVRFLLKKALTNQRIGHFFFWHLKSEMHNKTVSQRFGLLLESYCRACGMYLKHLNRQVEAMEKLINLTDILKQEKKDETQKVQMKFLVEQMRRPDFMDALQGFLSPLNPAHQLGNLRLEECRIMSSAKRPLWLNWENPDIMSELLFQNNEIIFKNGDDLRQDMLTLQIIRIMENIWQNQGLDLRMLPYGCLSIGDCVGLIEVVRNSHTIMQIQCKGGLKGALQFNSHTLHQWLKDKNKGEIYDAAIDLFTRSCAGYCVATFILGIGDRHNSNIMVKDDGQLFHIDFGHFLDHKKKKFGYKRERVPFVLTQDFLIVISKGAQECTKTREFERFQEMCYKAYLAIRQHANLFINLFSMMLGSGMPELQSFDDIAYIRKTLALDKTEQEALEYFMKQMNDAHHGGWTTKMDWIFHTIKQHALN
PI3Kα, sequence (P27986 whole entry partner): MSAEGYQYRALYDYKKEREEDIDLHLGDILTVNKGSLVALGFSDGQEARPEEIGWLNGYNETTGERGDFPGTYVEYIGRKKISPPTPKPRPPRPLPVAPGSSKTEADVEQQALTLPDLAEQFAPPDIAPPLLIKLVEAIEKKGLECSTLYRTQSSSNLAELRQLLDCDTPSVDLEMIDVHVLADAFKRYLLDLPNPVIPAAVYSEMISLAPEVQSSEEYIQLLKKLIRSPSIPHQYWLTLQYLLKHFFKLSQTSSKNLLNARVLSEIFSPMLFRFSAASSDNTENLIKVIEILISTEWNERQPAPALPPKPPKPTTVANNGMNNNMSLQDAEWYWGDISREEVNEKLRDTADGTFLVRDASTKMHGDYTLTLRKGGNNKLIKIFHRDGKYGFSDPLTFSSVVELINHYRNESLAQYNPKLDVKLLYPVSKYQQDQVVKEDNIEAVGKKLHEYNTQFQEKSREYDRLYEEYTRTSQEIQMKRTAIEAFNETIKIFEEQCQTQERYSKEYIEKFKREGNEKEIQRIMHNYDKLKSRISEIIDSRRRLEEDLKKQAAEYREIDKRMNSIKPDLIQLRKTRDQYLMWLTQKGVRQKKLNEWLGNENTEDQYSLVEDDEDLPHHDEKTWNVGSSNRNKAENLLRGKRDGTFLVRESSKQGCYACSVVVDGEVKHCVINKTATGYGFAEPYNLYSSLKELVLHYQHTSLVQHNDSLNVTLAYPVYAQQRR

Row | SMILES | IC50 [1, 3] | Ki [2] | IC50 ([1]; read-out: U87Cell IC50)
1 | Cc1nc(N)nc(-c2cccnc2Nc2cc[nH]c(=O)c2)n1 [Example 263, 4-(3-(4-Amino-6-Methyl-1,3,5-Triazin-2-yl)Pyridin-2-Ylamino)Pyridin-2(1H)-One] | > 10000 nM | 643 nM | –
2 | COc1ccc(Nc2ncc(N3CCC[C@@H]3CO)cc2-c2nc(C)nc3[nH]cnc23)cn1 [Example 101, ((2R)-1-(6-(6-Methoxypyridin-3-Ylamino)-5-(2-Methyl-9H-Purin-6-yl)Pyridin-3-yl)Pyrrolidin-2-yl)Methanol] | 293 nM | 40 nM | –
3 | COc1ccc(Nc2nc(N3CCCC3)ncc2-c2nc(C)nc(N)n2)cn1 [Example 122, 4-(4-(6-methoxypyridin-3-ylamino)-2-(pyrrolidin-1-yl)pyrimidin-5-yl)-6-methyl-1,3,5-triazin-2-amine] | 725 nM | 51 nM | –
4 | CC(=O)Nc1ccc(Nc2ncccc2-c2nc(C)nc3[nH]cnc23)cc1Cl [Example 181, N-(2-Chloro-4-(3-(2-Methyl-9H-Purin-6-yl)Pyridin-2-Ylamino)Phenyl)Acetamide] | 562 nM | 754 nM | –
5 | COc1ncc(Nc2ncc([C@@H](C)N3CCN(S(C)(=O)=O)C[C@@H]3C)cc2-c2cc(N)nc(C)n2)cc1F [Example 306, 6-(2-((5-fluoro-6-methoxy-3-pyridinyl)amino)-5-((1R)-1-((2S)-2-methyl-4-(methylsulfonyl)-1-piperazinyl)ethyl)-3-pyridinyl)-2-methyl-4-pyrimidinamine] | 3 nM | 1 nM | –
6 | COc1ccc(Nc2ncc(C(C)=O)nc2-c2cc(N)nc(C)n2)cn1 [Example 285, 1-(6-(6-Amino-2-Methylpyrimidin-4-yl)-5-(6-Methoxypyridin-3-Ylamino)Pyrazin-2-yl)Ethanone] | > 10000 nM | 103 nM | –
7 | COc1ccc(Nc2ncc(CN[C@H](C)CO)cc2-c2nc(C)nc(N)n2)cn1 [Example 226, (R)-2-((5-(4-Amino-6-Methyl-1,3,5-Triazin-2-yl)-6-(6-Methoxypyridin-3-Ylamino)Pyridin-3-yl)Methylamino)Propan-1-ol] | 573 nM | 354 nM | –
8 | COCCOc1ccc(NC(=O)Nc2ccc(Nc3ncc(Cl)cc3-c3nc(C)nc(N)n3)cn2)cc1 [Example 195, 1-(5-(3-(4-Amino-6-Methyl-1,3,5-Triazin-2-yl)-5-Chloropyridin-2-Ylamino)Pyridin-2-yl)-3-(4-(2-Methoxyethoxy)Phenyl)Urea] | > 10000 nM | 16 nM | –
9 | COc1ccc(Nc2ncc(CN3CCN(S(=O)(=O)N(C)C)CC3)cc2-c2nc(C)nc3[nH]cnc23)cn1 [Example 88, 4-((6-(6-Methoxypyridin-3-Ylamino)-5-(2-Methyl-9H-Purin-6-yl)Pyridin-3-yl)Methyl)-N,N-Dimethylpiperazine-1-Sulfonamide] | 45 nM | 7 nM | –
10 | Cc1ccc(-c2nc(C)nc(N)n2)c(Nc2cncc(F)c2)n1 [Example 200, 4-(2-(5-Fluoropyridin-3-Ylamino)-6-Methylpyridin-3-yl)-6-Methyl-1,3,5-Triazin-2-Amine] | > 10000 nM | 180 nM | –
11 | COc1ccc(Nc2ncc(CNc3cccnn3)cc2-c2nc(C)nc3[nH]cnc23)cn1 [Example 80, N-((6-(6-methoxypyridin-3-ylamino)-5-(2-methyl-9H-purin-6-yl)pyridin-3-yl)methyl)pyridazin-3-amine] | 305 nM | 33 nM | –
12 | COc1ncc(Nc2ncc([C@@H](C)N3CCN(S(C)(=O)=O)C[C@@H]3C)cc2-c2nc(C)nc3[nH]cnc23)cc1F [Example 295, N-(5-Fluoro-6-Methoxypyridin-3-yl)-5-((R)-1-((S)-2-Methyl-4-(Methylsulfonyl)Piperazin-1-yl)Ethyl)-3-(2-Methyl-9H-Purin-6-yl)Pyridin-2-Amine] | 6 nM | 3 nM | –
13 | COc1ncc(Nc2ncc(C3(O)CC3)cc2-c2nc(C)nc(N)n2)cc1F [Example 298, 1-(5-(4-Amino-6-Methyl-1,3,5-Triazin-2-yl)-6-(5-Fluoro-6-Methoxypyridin-3-Ylamino)Pyridin-3-yl)Cyclopropanol] | 23 nM | 4 nM | –
14 | COc1ccc(Nc2nc(-c3cccnc3)ccc2-c2nc(C)nc(N)n2)cn1 [Example 254, 5-(4-Amino-6-Methyl-1,3,5-Triazin-2-yl)-N-(6-Methoxypyridin-3-yl)-2,3′-Bipyridin-6-Amine] | 583 nM | 67 nM | –
15 | COc1ccc(Nc2ncc(-c3cn[nH]c3)cc2-c2nc(C)nc(N)n2)cn1 [Example 250, 4-(2-(6-Methoxypyridin-3-Ylamino)-5-(1H-Pyrazol-4-yl)Pyridin-3-yl)-6-Methyl-1,3,5-Triazin-2-Amine] | 46 nM | 11 nM | –
16 | COc1ccc(Nc2ncccc2-c2nc(C)nc(N)n2)cc1OC [Example 170, 4-(2-(3,4-Dimethoxyphenylamino)Pyridin-3-yl)-6-Methyl-1,3,5-Triazin-2-Amine] | 596 nM | 560 nM | –
17 | COc1ccc(Nc2ncc(CNc3ccncc3)cc2-c2nc(C)nc3[nH]cnc23)cn1 [Example 81, N-(6-methoxypyridin-3-yl)-3-(2-methyl-9H-purin-6-yl)-5-((pyridin-4-ylamino)methyl)pyridin-2-amine] | 509 nM | 42 nM | –
18 | COc1ccc(Nc2ncc(C(C)N3CC(S(C)(=O)=O)C3)cc2-c2nc(C)nc(N)n2)cn1 (centres unmarked) [Example 308, 4-(2-(6-methoxypyridin-3-ylamino)-5-(1-(3-(methylsulfonyl)azetidin-1-yl)ethyl)pyridin-3-yl)-6-methyl-1,3,5-triazin-2-amine 2,2,2-trifluoroacetate] | – | 19 nM | 60 nM
19 | COc1ccc(Nc2ncc(CNCCO)cc2-c2nc(C)nc(N)n2)cn1 [Example 225, 2-((5-(4-Amino-6-Methyl-1,3,5-Triazin-2-yl)-6-(6-Methoxypyridin-3-Ylamino)Pyridin-3-yl)Methylamino)Ethanol] | 275 nM | 135 nM | –

Now from value to compound, other results behind:

Row | IC50 [1, 3] | Ki [2] | SMILES | IC50 ([1]; read-out: U87Cell IC50)
20 | 70 nM | 9 nM | COc1ncc(Nc2ncc(C(OC(=O)c3cccc(Cl)c3)C(C)(C)O)cc2-c2nc(C)nc(N)n2)cc1F (centres unmarked) [Example 351, 1-(5-(4-Amino-6-Methyl-1,3,5-Triazin-2-yl)-6-(5-Fluoro-6-Methoxypyridin-3-Ylamino)Pyridin-3-yl)-2-Hydroxy-2-Methylpropyl 3-Chlorobenzoate] | –
21 | 4 nM | 5 nM | Cc1nc(N)nc(-c2cc([C@H](C)N3CCOCC3)cnc2Nc2cnc(Cl)c(NS(C)(=O)=O)c2)n1 (single isomer, unassigned) [Example 372] | –
22 | 52 nM | 21 nM | COc1ncc(Nc2ncc(CN3CCN(S(C)(=O)=O)C[C@@H]3C)cc2-c2nc(C)nc(N)n2)cn1 [Example 319, (S)-4-(2-(2-Methoxypyrimidin-5-Ylamino)-5-((2-Methyl-4-(Methylsulfonyl)Piperazin-1-yl)Methyl)Pyridin-3-yl)-6-Methyl-1,3,5-Triazin-2-Amine] | –
23 | 35 nM | 13 nM | COc1ncc(Nc2ncc(C(C)(C)O)cc2-c2cc(N)nc(C)n2)cc1F [Example 345, 2-(5-(6-Amino-2-Methylpyrimidin-4-yl)-6-(5-Fluoro-6-Methoxypyridin-3-Ylamino)Pyridin-3-yl)Propan-2-ol] | –
24 | 1 nM | 6 nM | Cc1nc(N)nc(-c2cc([C@@H](C)N3CCOCC3)cnc2Nc2cnc(Cl)c(NS(=O)(=O)N(C)C)c2)n1 [Example 373, (R)—N-(5-(3-(4-Amino-6-Methyl-1,3,5-Triazin-2-yl)-5-(1-Morpholinoethyl)Pyridin-2-Ylamino)-2-Chloropyridin-3-yl)-N,N-Dimethylaminosulfamide] | –
25 | > 10000 nM | 7 nM | COc1ncc(Nc2ncc(CN3CCN(S(C)(=O)=O)CC3C(F)(F)F)cc2-c2nc(C)nc(N)n2)cc1F (centres unmarked) [Example 313, 4-(2-(5-Fluoro-6-Methoxypyridin-3-Ylamino)-5-((4-(Methylsulfonyl)-2-(Trifluoromethyl)Piperazin-1-yl)Methyl)Pyridin-3-yl)-6-Methyl-1,3,5-Triazin-2-Amine] | –
26 | 108 nM | 75 nM | COc1ncc(Nc2ncc(C(O)C(C)(C)O)cc2-c2nc(C)nc(N)n2)cc1F (centres unmarked) [Example 347, 1-(5-(4-Amino-6-Methyl-1,3,5-Triazin-2-yl)-6-(5-Fluoro-6-Methoxypyridin-3-Ylamino)Pyridin-3-yl)-2-Methylpropane-1,2-Diol] | –
27 | 21 nM | 98 nM | COc1ncc(Nc2ncc(CN3CCOCC3)cc2-c2nc(C)nc(N)n2)cc1NS(C)(=O)=O [Example 337, N-(5-(3-(4-Amino-6-Methyl-1,3,5-Triazin-2-yl)-5-(Morpholinomethyl)Pyridin-2-Ylamino)-2-Methoxypyridin-3-yl)Methanesulfonamide] | –
28 | 10 nM | 2 nM | COc1ncc(Nc2ncc([C@@H](C)N3CCN(S(C)(=O)=O)C[C@@H]3C)cc2-c2nc(C)nc(N)n2)cn1 [Example 362, 4-(2-(2-Methoxypyrimidin-5-Ylamino)-5-((R)-1-((S)-2-Methyl-4-(Methylsulfonyl)Piperazin-1-yl)Ethyl)Pyridin-3-yl)-6-Methyl-1,3,5-Triazin-2-Amine] | –
29 | 175 nM | 152 nM | Cc1nc(N)cc(-c2cccnc2Nc2cnc(Cl)c(NS(=O)(=O)N(C)C)c2)n1 [Example 375, N-(5-(3-(6-Amino-2-Methylpyrimidin-4-yl)Pyridin-2-Ylamino)-2-Chloropyridin-3-yl)-N,N-Dimethylaminosulfamide] | –
30 | 31 nM | 15 nM | Cc1nc(N)nc(-c2cc([C@@H](C)N3CCN(S(C)(=O)=O)C[C@@H]3C)cnc2Nc2ccc(Cl)nc2)n1 [Example 363, 4-(2-(6-Chloropyridin-3-Ylamino)-5-((R)-1-((S)-2-Methyl-4-(Methylsulfonyl)Piperazin-1-yl)Ethyl)Pyridin-3-yl)-6-Methyl-1,3,5-Triazin-2-Amine] | –
31 | 7 nM | 19 nM | COc1cc(Nc2ncc(C(C)(C)O)cc2-c2nc(C)nc(N)n2)cnc1OC [Example 350, 2-(5-(4-Amino-6-Methyl-1,3,5-Triazin-2-yl)-6-(5,6-Dimethoxypyridin-3-Ylamino)Pyridin-3-yl)Propan-2-ol] | –
